Literature values, collected in patent US9161933B2, “Solid pharmaceutical composition comprising amlodipine and losartan and process for producing same” (HANMI SCIENCE CO., LTD, priority 2009, dated 2015).

Conditions: after food absorption

SMILES: CCCCc1nc(Cl)c(CO)n1Cc1ccc(-c2ccccc2-c2nn[nH]n2)cc1 [losartan, 2-butyl-4-chloro-1-[[2′-(1H-tetrazol-5-yl)[1,1′-biphenyl]-4-yl]methyl]-1H-imidazol-5-methanol]
- reduction of Cmax of losartan: about 10%
